Where “and” joins values, the source holds several entries; their conditions need not be identical. Identical values can stand only once. Numbers after ± are expanded uncertainties.
Settings: Hot wire method

CCF [fluoroethane]
Liquid
Settings	thermal conductivity
294.9 K	0.1096 ± 0.0044 W/m/K
294.91 K	0.1093 ± 0.0044 W/m/K
294.94 K	0.1112 ± 0.0045 W/m/K and 0.1104 ± 0.0044 W/m/K
294.95 K	0.111 ± 0.0045 W/m/K
295.22 K	0.11 ± 0.0044 W/m/K and 0.1098 ± 0.0044 W/m/K
304.39 K	0.1056 ± 0.0043 W/m/K
304.4 K	0.1056 ± 0.0043 W/m/K
304.41 K	0.1057 ± 0.0043 W/m/K
304.67 K	0.1054 ± 0.0042 W/m/K
304.68 K	0.1056 ± 0.0043 W/m/K and 0.1052 ± 0.0042 W/m/K
305.07 K	0.1055 ± 0.0042 W/m/K
305.19 K	0.1057 ± 0.0043 W/m/K and 0.1058 ± 0.0043 W/m/K
314.36 K	0.1007 ± 0.004 W/m/K and 0.1002 ± 0.004 W/m/K
314.38 K	0.1003 ± 0.004 W/m/K
314.4 K	0.1003 ± 0.004 W/m/K and 0.1012 ± 0.0041 W/m/K
314.46 K	0.1013 ± 0.0041 W/m/K
314.68 K	0.1009 ± 0.0041 W/m/K
314.69 K	0.1008 ± 0.004 W/m/K
314.7 K	0.1003 ± 0.004 W/m/K
314.71 K	0.1011 ± 0.0041 W/m/K and 0.1008 ± 0.004 W/m/K
314.72 K	0.1006 ± 0.004 W/m/K
315.05 K	0.1008 ± 0.004 W/m/K
315.06 K	0.1007 ± 0.004 W/m/K
315.07 K	0.1005 ± 0.004 W/m/K and 0.101 ± 0.0041 W/m/K and 0.1008 ± 0.004 W/m/K
315.08 K	0.1002 ± 0.004 W/m/K
324.64 K	0.09597 ± 0.0039 W/m/K and 0.09452 ± 0.0038 W/m/K
324.66 K	0.09557 ± 0.0038 W/m/K
324.85 K	0.09515 ± 0.0038 W/m/K
324.86 K	0.09533 ± 0.0038 W/m/K
324.87 K	0.09498 ± 0.0038 W/m/K
325.28 K	0.09515 ± 0.0038 W/m/K
325.29 K	0.09565 ± 0.0039 W/m/K
325.3 K	0.09512 ± 0.0038 W/m/K

Gas
Settings	thermal conductivity [W/m/K]
295.76 K, 779.2 kPa	0.01526 ± 0.00094
295.78 K, 690.7 kPa	0.0151 ± 0.00094
295.97 K, 520.7 kPa	0.01551 ± 0.00096
296.2 K, 275.3 kPa	0.01553 ± 0.00096
297.07 K, 690.7 kPa	0.01526 ± 0.00094
297.24 K, 520.7 kPa	0.01534 ± 0.00095
297.64 K, 275.3 kPa	0.01544 ± 0.00096
298.46 K, 520.7 kPa	0.01532 ± 0.00095
299.03 K, 275.3 kPa	0.01558 ± 0.00096
305.63 K, 712.7 kPa	0.01677 ± 0.001
305.93 K, 916.4 kPa	0.0163 ± 0.001
306.16 K, 227 kPa	0.01673 ± 0.001
306.42 K, 1035 kPa	0.01653 ± 0.001
306.59 K, 712.7 kPa	0.01627 ± 0.001
306.71 K, 504.3 kPa	0.01683 ± 0.001
306.93 K, 916.4 kPa	0.01663 ± 0.001
306.93 K, 1035 kPa	0.01725 ± 0.0011
306.97 K, 227 kPa	0.01654 ± 0.001
307.36 K, 1035 kPa	0.01661 ± 0.001
307.57 K, 504.3 kPa	0.01663 ± 0.001
307.89 K, 227 kPa	0.01643 ± 0.001
315.53 K, 1227.4 kPa	0.01838 ± 0.0011
315.63 K, 1202.4 kPa	0.01779 ± 0.0011
315.79 K, 316.7 kPa	0.01783 ± 0.0011
315.81 K, 1005.9 kPa	0.01828 ± 0.0011
315.87 K, 807.4 kPa	0.01738 ± 0.0011
316.01 K, 1341.3 kPa	0.01815 ± 0.0011
316.27 K, 1202.4 kPa	0.01803 ± 0.0011
316.4 K, 1005.9 kPa	0.01789 ± 0.0011
316.4 K, 1341.3 kPa	0.01835 ± 0.0011
316.53 K, 1162.6 kPa	0.01796 ± 0.0011
316.59 K, 807.4 kPa	0.01737 ± 0.0011
316.83 K, 613.8 kPa	0.01747 ± 0.0011
316.94 K, 1202.4 kPa	0.0181 ± 0.0011
317.06 K, 1341.3 kPa	0.01801 ± 0.0011
317.12 K, 1005.9 kPa	0.01811 ± 0.0011
318.31 K, 316.7 kPa	0.01787 ± 0.0011
321.99 K, 1292.4 kPa	0.01904 ± 0.0012
322.07 K, 1292.4 kPa	0.01921 ± 0.0012
322.37 K, 797.5 kPa	0.01858 ± 0.0011
322.59 K, 797.5 kPa	0.01847 ± 0.0011
323.36 K, 797.5 kPa	0.01857 ± 0.0011
324.32 K, 1700.6 kPa	0.01997 ± 0.0012
324.97 K, 1700.6 kPa	0.0202 ± 0.0013
325.27 K, 1362.6 kPa	0.01957 ± 0.0012
325.45 K, 1700.6 kPa	0.02011 ± 0.0012
326.1 K, 1362.6 kPa	0.01993 ± 0.0012
326.61 K, 1095.3 kPa	0.0197 ± 0.0012
326.64 K, 968 kPa	0.01935 ± 0.0012
326.71 K, 798.3 kPa	0.01946 ± 0.0012
326.98 K, 999.2 kPa	0.01933 ± 0.0012

Source: the NIST ThermoML archive (doi:10.1016/j.fluid.2014.04.038)
